Assay results as given in patent US4857549A, “Antitumor compounds” (priority 1988, dated 1989).
Several values for one entry are separate records, joined by “and”; a condition that tells them apart may be missing. Identical values can stand only once. Like-named read-outs stand apart in the source and are kept apart here.

Assays:
[1] = system: B16 melanoma cells (highly metastatic subline, F10); assay: B16 melanoma in vitro cloning (colony forming) assay, 2 hour exposure; format: cell-based; conditions: read-out: IC50: concentration which inhibits cloning efficiency of B16 melanoma cells by 50%
Protocol: Initially, the cytotoxic activity of the Formula (I) and Formula (IA) compounds used in the pharmaceutical compositions and methods of treatment of the instant invention was evaluated in vitro using B16 melanoma cells according to the following assay:
B16 melanoma (highly metastatic subline, F10) are used and maintained as monolayer cultures in Minimal Essential Media (Grand Island Biological Co., Grand Island, N.Y. ) supplemented with 10% calf serum, 1% antibiotics in a 5% CO2 humidified incubator at 37° C. Asynchronous populations of cells are harvested and replated to 5000 cells/plate in sterile 60 mm×15 mm petri plates. Plates are incubated overnight to allow attachment of the cells to the plate. Cells are treated with a Formula (I) or Formula (IA) compound or cisplatin under sterile conditions, allowed to react for 2 hours followed by aspiration of medium. Plates are washed one time with 5 ml of phosphate buffered saline (PBS), followed by the addition of 5 ml of fresh media. Plates are incubated for 5 days at 37° in a CO2 incubator. Viability is measured by the ability of a cell to form a colony of greater than 50 cells. Colonies are fixed with 0.5% crystal violet in 95% ethanol. Plates are dried and counted with a Biotran III Automatic Count Totalizer (New Brunswick Scientific Co., Edison, N.J.). Mean and standard deviation of triplicate samples are determined for each drug concentration. The data are analyzed by plotting the log of the survival fraction (number of colonies in drug treated plates/number of colonies in controls) versus the drug concentration.
^(a) concentration which inhibits cloning efficiency of B16 melanoma
cells by 50% on a 2hour exposure.

[2] = system: M5076 reticulum cell sarcoma; assay: ip M5076 reticulum cell sarcoma assay in mice; conditions: for MTD (maximally tolerated dose): B6D2F1 female mice; for MTD (maximally tolerated dose) / ILS max (maximum increase in lifespan): ip qD × 10; for ILS max (maximum increase in lifespan): ip M5076 sarcoma mice, slash = separate experiments; for activity in the ip M5076 reticulum cell sarcoma assay: in words, based on Tables C and D
Protocol: (§1) Another chemosensitive tumor model is intraperitoneally (ip) implanted M5076 reticulum cell sarcoma in mice. In this system B6D2F1 female mice are inoculated with 0.5 ml of a 10 percent weight:volume (w:v) brei of M5076 prepared from pooled subcutaneous (sc) tumors excised at about 21 days from c57B1/6 donor mice. Drugs are administered ip. Daily treatment is begun 24 hours after implantation and is continued for ten days. The treatment regimen for M5076 is more prolonged than for P388 because of the slower growth rate and longer control survival time of the M5076 tumor.

in vivo = conditions: mouse, ip
[3] = ip M5076 reticulum cell sarcoma assay in mice; conditions: mouse, in vivo, ip
Protocol: as §1

B16 melanoma = assay: in vivo ip B16 melanoma assay; conditions: Table E, ip qD × 10
Protocol: The cytotoxic activity of several compounds of Formula (I) was evaluated in vivo using B16 melanoma cells according to the following assay:
In this system, groups of eight B6D2F1 mice are inoculated ip with 0.5 ml of a 10% (w:v) brei of B16 melanoma prepared from pooled sc tumors excised at 14.noteq.21 days from C67B1 /6 donor mice. Daily treatment is begun 24 hours after tumor implantation and is continued daily for 10 days. The route of drug administration is ip. The mice are monitored daily for survival for 60 days. Antitumor activity is assessed by prolongation of median survival time.

[4] = system: mammary adenocarcinoma 16/c; assay: sc mammary adenocarcinoma 16/c assay
Protocol: The mammary adenocarcinoma 16/c tumor is implanted sc in C3H mice, and the Formula (I) compound is administered ip on days 1, 5, 9, 13 and 17. Tumors are measured 3 weeks after implantation, and activity is assessed by degree of tumor growth inhibition.

ADJ-PC6 Plasmacytoma = assay: ADJ-PC6 plasmacytoma assay; conditions: in words
Protocol: Tumor cells are carried by serial sc passage in BALB/c female mice and then collected aseptically on ca. Day 21 and minced in Hank's balanced salt solution. The cells are then dispersed by homogenization in a loose-fitting teflon glass homogenizer, and cell concentration is adjusted to 4×10^6 viable ([…]) cells per ml by hemocytometer counts. A total of 0.5 ml (2×10^6 cells) is implanted sc on the right flank of BALB/c female mice in groups of 8. Treatment is given ip on Days 1-10, and tumors are measured in perpendicular diameters with a vernier caliper on Day 18.
^(b) maximally tolerated dose for BALB/c female mice on an ip qD

[5] = Table C, compound 2: seven experiments
[6] = Table B, B6D2F1 female mice, ip qD × 5
[7] = Mus musculus, B16, Table AI, Formula (IA)
[8] = Table B, ip P388 leukemia mice, ip days 1-5, slash-separated figures are separate experiments, compound 2: 35 experiments

Compound	IC50 ([1]; Table A, Formula (I))	ILS max (maximum increase in lifespan) [2, 5]	MTD (maximally tolerated dose) (P388 leukemia; [6])	IC50 [1, 7]	MTD (in vivo)	ILS (maximum increase in lifespan) (P388 leukemia; [8])	further results
[Cl][Au][PH](CCC[PH]([Au][Cl])(c1ccccc1)c1ccccc1)(c1ccccc1)c1ccccc1 [Compound 3, μ-[1,3-Bis(Diphenylphosphino)Propane]Bis[Chlorogold(I)]]	2 µM	69%	8 mg/kg	–	–	–	MTD (maximally tolerated dose) ([2]; Table C): 5 mg/kg; activity in the ip M5076 reticulum cell sarcoma assay [2]: good activity
C[C@H](CP(c1ccccc1)c1ccccc1)P(c1ccccc1)c1ccccc1 [Compound 36, R-(+)-bis(1,2-diphenylphosphino)propane]	–	–	–	50 µM	32 mg/kg	–	–
c1ccc(P(c2ccccc2)c2ccccc2P(c2ccccc2)c2ccccc2)cc1 [Compound 40, Bis(1,2-Diphenylphosphino)Benzene]	–	–	–	28 µM	32 mg/kg	–	–
C(=C/P(c1ccccc1)c1ccccc1)/P(c1ccccc1)c1ccccc1 [Compound 34, cis-bis(1,2-diphenylphosphino)ethylene]	–	–	–	25 µM	24 mg/kg	–	MTD [3]: 5 mg/kg; ILS max (maximum increase in lifespan) ([2]; Table D): 57%; activity in the ip M5076 reticulum cell sarcoma assay [2]: good activity
[Br][Au][PH](CC[PH]([Au][Br])(c1ccccc1)c1ccccc1)(c1ccccc1)c1ccccc1 [Compound 15]	–	69%	–	–	–	116% and 80%	MTD (maximally tolerated dose) (B16 melanoma; B6D2F1 mice): 13 um/kg; ILS (maximum increase in lifespan) (B16 melanoma; ip B16 melanoma mice, slash = separate experiments): 49% and 41%; MTD (maximally tolerated dose) ([4]; Table F, C3H mice, intermittent ip regimen): 26 um/kg; Inhibition (tumor growth inhibition) ([4]; Table F, sc tumor, ip days 1, 5, 9, 13, 17, slash = separate experiments): 79%
[Cl][Au][PH](C[PH]([Au][Cl])(c1ccccc1)c1ccccc1)(c1ccccc1)c1ccccc1 [Compound 1, μ-[1,3-Bis(Diphenylphosphino)Methane]Bis[Chlorogold(I)]]	6 µM	–	50 mg/kg	–	–	62% and 50%	–
[Cl][Au][PH](CCCC[PH]([Au][Cl])(c1ccccc1)c1ccccc1)(c1ccccc1)c1ccccc1 [Compound 4, μ-[1,4-Bis(Diphenylphosphino)Butane]Bis[Chlorogold(I)]]	3 µM	–	–	–	–	45% and 40%	MTD (maximally tolerated dose) (P388 leukemia; mouse, in vivo, ip): 6 mg/kg
[Cl][Au][PH](CC[PH]([Au][Cl])(C1CCCCC1)C1CCCCC1)(C1CCCCC1)C1CCCCC1 [Compound 22, μ-[1,2-Bis(Dicyclohexylphosphino)Ethane]Bis[Chlorogold(I)]]	14 µM	27%	16 mg/kg	–	–	–	MTD (maximally tolerated dose) ([2]; Table C): 8 mg/kg
[Cl][Au-][P+](CCCCCC[P+]([Au-][Cl])(c1ccccc1)c1ccccc1)(c1ccccc1)c1ccccc1 [Compound 6, μ-[1,6-Bis(Diphenylphosphino)Hexane]Bis[Chlorogold(I)]]	2 µM	–	–	–	–	–	ILS (maximum increase in lifespan) (P388 leukemia; mouse, in vivo, ip): 40% and 35%; MTD (maximally tolerated dose) (P388 leukemia; mouse, in vivo, ip): 4 mg/kg
CC(CP(c1ccccc1)c1ccccc1)P(c1ccccc1)c1ccccc1 (stereo not shown) [Compound 35, Bis(1,2-diphenylphosphino)propane]	–	–	–	50 µM	32 mg/kg	–	MTD (maximally tolerated dose) ([2]; Table D): 24 mg/kg; ILS max (maximum increase in lifespan) ([2]; Table D): 62%
[Cl][Au]([Cl])([Cl])[PH](CC[PH](c1ccccc1)(c1ccccc1)[Au]([Cl])([Cl])[Cl])(c1ccccc1)c1ccccc1 [Compound 12, μ-[1,2-Bis(Diphenylphosphino)Ethane]Bis[Trichlorogold(III)]]	4 µM	74%	16 mg/kg	–	–	95% and 62%	MTD (maximally tolerated dose) ([2]; Table C): 8 mg/kg
[Cl][Au][PH](C=C[PH]([Au][Cl])(c1ccccc1)c1ccccc1)(c1ccccc1)c1ccccc1 [Compound 7, μ-[Cis-1,2-Bis(Diphenylphosphino)Ethylene]Bis[Chlorogold(I)]]	7 µM	90%	4 mg/kg	–	–	105% and 77%	MTD (maximally tolerated dose) ([2]; Table C): 3 mg/kg; activity in the ip M5076 reticulum cell sarcoma assay [2]: good activity
[Cl][Au-][P+](CCCCC[P+]([Au-][Cl])(c1ccccc1)c1ccccc1)(c1ccccc1)c1ccccc1 [Compound 5, μ-[1,5-Bis(Diphenylphospinio)Pentane]Bis[Chlorogold(I)]]	2 µM	–	4 mg/kg	–	–	55%	–
c1ccc(P(CCCP(c2ccccc2)c2ccccc2)c2ccccc2)cc1 [Compound 37, bis(1,3-diphenylphosphino)propane]	–	–	–	72 µM	32 mg/kg	–	–
N.N.[Cl][Pt][Cl] [cisplatin, reference compound]	–	–	–	–	–	–	activity of positive control in ip M5076 ([2]; all experiments, active = average ≥25 percent ILS): active in all experiments; tumor growth inhibition by positive control (ADJ-PC6 Plasmacytoma): complete tumor growth inhibition; inhibition of growth of mammary adenocarcinoma 16/c by positive control ([4]; in words, generally produced): complete inhibition
[2H]c1c([2H])c([2H])c(P(CCP(c2c([2H])c([2H])c([2H])c([2H])c2[2H])c2c([2H])c([2H])c([2H])c([2H])c2[2H])c2c([2H])c([2H])c([2H])c([2H])c2[2H])c([2H])c1[2H] [Compound 43, 1,2-Ethanediyl-bis[di(phenyl-d5)phosphine]]	–	–	–	50 µM	24 mg/kg	–	–
